Test system: 695427-040-R-J1-PDC complex spheroids, viability percent T/C
Assay: Anticancer human tumor 695427-040-R-J1-PDC patient-derived colon adenocarcinoma cell line growth inhibition [GQUAD]
Settings: for IC50: curve of first compound; for viability, T/C: stronger effect = lower value
Summary of the method: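 Multi-cell-type spheroids of tumor cells with HUVEC and mesenchymal stem cells, treated with drug combinations. Concentrations descend in half-log steps from near clinical Cmax, or from 10 microM where Cmax is unknown; viability read-out.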

[1] = second compound 0.0316 µM, first compound 0.0316 µM
[2] = second compound 0.0316 µM, first compound 0.316 µM
[3] = second compound 0.1 µM, first compound 0.0316 µM
[4] = second compound 0.1 µM, first compound 0.316 µM
[5] = second compound 0.316 µM, first compound 0.0316 µM
[6] = second compound 0.316 µM, first compound 0.316 µM
[7] = second compound 1 µM, first compound 0.0316 µM
[8] = second compound 1 µM, first compound 0.316 µM
[9] = second compound 3.16 µM, first compound 0.0316 µM
[10] = second compound 3.16 µM, first compound 0.316 µM
[11] = second compound 10 µM, first compound 0.0316 µM
[12] = second compound 10 µM, first compound 0.316 µM
[13] = second compound 0.0316 µM, first compound 0.1 µM
[14] = second compound 0.0316 µM, first compound 1 µM
[15] = second compound 0.0316 µM, first compound 3.16 µM
[16] = second compound 0.0316 µM, first compound 10 µM
[17] = second compound 0.1 µM, first compound 0.1 µM
[18] = second compound 0.1 µM, first compound 1 µM
[19] = second compound 0.1 µM, first compound 3.16 µM
[20] = second compound 0.1 µM, first compound 10 µM
[21] = second compound 0.316 µM, first compound 0.1 µM
[22] = second compound 0.316 µM, first compound 1 µM
[23] = second compound 0.316 µM, first compound 3.16 µM
[24] = second compound 0.316 µM, first compound 10 µM
[25] = second compound 1 µM, first compound 0.1 µM
[26] = second compound 1 µM, first compound 1 µM
[27] = second compound 1 µM, first compound 3.16 µM
[28] = second compound 1 µM, first compound 10 µM
[29] = second compound 3.16 µM, first compound 0.1 µM
[30] = second compound 3.16 µM, first compound 1 µM
[31] = second compound 3.16 µM, first compound 3.16 µM
[32] = second compound 3.16 µM, first compound 10 µM
[33] = second compound 10 µM, first compound 0.1 µM
[34] = second compound 10 µM, first compound 1 µM
[35] = second compound 10 µM, first compound 3.16 µM
[36] = second compound 10 µM, first compound 10 µM
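Note: spheroids exposed to compounds for seven days before readout.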

CC[C@@]1(O)C(=O)OCc2c1cc1n(c2=O)Cc2cc3c(CN(C)C)c(O)ccc3nc2-1 + Cc1[nH]c2ccc(F)cc2c1-c1nc2c3cccnc3c3ncccc3c2[nH]1 showed an IC50 (second compound 0.0316 µM) of over 0.316 µM, an IC50 (second compound 0.1 µM) of over 0.316 µM and an IC50 (second compound 0.316 µM) of over 0.316 µM. It also gave an IC50 (second compound 1 µM) of over 0.316 µM, an IC50 (second compound 3.16 µM) of over 0.316 µM and an IC50 (second compound 10 µM) of over 0.316 µM. It also gave a viability, T/C (second compound 0.0316 µM, first compound 0.000999 µM) of 108%, a viability, T/C (second compound 0.0316 µM, first compound 0.00316 µM) of 105% and a viability, T/C (second compound 0.0316 µM, first compound 0.00999 µM) of 109%. The viability, T/C [1] was 71.5%, the viability, T/C (second compound 0.0316 µM, first compound 0.0999 µM) was 98.3% and the viability, T/C [2] was 82.1%. It also gave a viability, T/C (second compound 0.1 µM, first compound 0.000999 µM) of 94.5%, a viability, T/C (second compound 0.1 µM, first compound 0.00316 µM) of 89.4% and a viability, T/C (second compound 0.1 µM, first compound 0.00999 µM) of 94.1%. For the same molecule, the viability, T/C [3] was 78.7%, the viability, T/C (second compound 0.1 µM, first compound 0.0999 µM) was 94.2% and the viability, T/C [4] was 89.8%. For the same molecule, the viability, T/C (second compound 0.316 µM, first compound 0.000999 µM) was 97.3%, the viability, T/C (second compound 0.316 µM, first compound 0.00316 µM) was 90.4% and the viability, T/C (second compound 0.316 µM, first compound 0.00999 µM) was 92.9%. For the same molecule, the viability, T/C [5] was 88.2%, the viability, T/C (second compound 0.316 µM, first compound 0.0999 µM) was 101% and the viability, T/C [6] was 78.9%. For the same molecule, the viability, T/C (second compound 1 µM, first compound 0.000999 µM) was 85.2%, the viability, T/C (second compound 1 µM, first compound 0.00316 µM) was 97.2% and the viability, T/C (second compound 1 µM, first compound 0.00999 µM) was 92.6%. For the same molecule, the viability, T/C [7] was 95%, the viability, T/C (second compound 1 µM, first compound 0.0999 µM) was 91.3% and the viability, T/C [8] was 73.2%. The viability, T/C (second compound 3.16 µM, first compound 0.000999 µM) was 62.5%, the viability, T/C (second compound 3.16 µM, first compound 0.00316 µM) was 82.9% and the viability, T/C (second compound 3.16 µM, first compound 0.00999 µM) was 79.3%. It also gave a viability, T/C [9] of 72.4%, a viability, T/C (second compound 3.16 µM, first compound 0.0999 µM) of 84.4% and a viability, T/C [10] of 77.3%. It also gave a viability, T/C (second compound 10 µM, first compound 0.000999 µM) of 58.9%, a viability, T/C (second compound 10 µM, first compound 0.00316 µM) of 78.8% and a viability, T/C (second compound 10 µM, first compound 0.00999 µM) of 83.8%. The viability, T/C [11] was 78.2%, the viability, T/C (second compound 10 µM, first compound 0.0999 µM) was 89.5% and the viability, T/C [12] was 73.1%.

COc1cc(C2c3cc4c(cc3C(OC3OC5COC(C)OC5C(O)C3O)C3COC(=O)C23)OCO4)cc(OC)c1O (stereo not drawn) + Cc1[nH]c2ccc(F)cc2c1-c1nc2c3cccnc3c3ncccc3c2[nH]1 was tested, and the IC50 (second compound 0.0316 µM) was over 10 µM, the IC50 (second compound 0.1 µM) was over 10 µM and the IC50 (second compound 0.316 µM) was over 10 µM. It also gave an IC50 (second compound 1 µM) of over 10 µM, an IC50 (second compound 3.16 µM) of over 10 µM and an IC50 (second compound 10 µM) of over 10 µM. The viability, T/C [1] was 118%, the viability, T/C [13] was 90.7% and the viability, T/C [2] was 105%. It also gave a viability, T/C [14] of 102%, a viability, T/C [15] of 87.4% and a viability, T/C [16] of 78.1%. It also gave a viability, T/C [3] of 110%, a viability, T/C [17] of 92.6% and a viability, T/C [4] of 113%. It also gave a viability, T/C [18] of 68.8%, a viability, T/C [19] of 84.1% and a viability, T/C [20] of 76.7%. For the same molecule, the viability, T/C [5] was 112%, the viability, T/C [21] was 83.3% and the viability, T/C [6] was 80.3%. For the same molecule, the viability, T/C [22] was 87.3%, the viability, T/C [23] was 85.8% and the viability, T/C [24] was 74.1%. It also gave a viability, T/C [7] of 91.9%, a viability, T/C [25] of 95.4% and a viability, T/C [8] of 90.5%. The viability, T/C [26] was 87.6%, the viability, T/C [27] was 91.5% and the viability, T/C [28] was 71.2%. For the same molecule, the viability, T/C [9] was 81.2%, the viability, T/C [29] was 85.9% and the viability, T/C [10] was 82.7%. The viability, T/C [30] was 82.7%, the viability, T/C [31] was 81.3% and the viability, T/C [32] was 69%. For the same molecule, the viability, T/C [11] was 65.9%, the viability, T/C [33] was 74.3% and the viability, T/C [12] was 87%. It also gave a viability, T/C [34] of 83.8%, a viability, T/C [35] of 68.7% and a viability, T/C [36] of 64.3%.

With Nc1ccn(C2OC(CO)C(O)C2(F)F)c(=O)n1 (stereo not drawn) + Cc1[nH]c2ccc(F)cc2c1-c1nc2c3cccnc3c3ncccc3c2[nH]1 the IC50 (second compound 0.0316 µM) was over 10 µM, the IC50 (second compound 0.1 µM) was over 10 µM and the IC50 (second compound 0.316 µM) was over 10 µM. It also gave an IC50 (second compound 1 µM) of over 10 µM, an IC50 (second compound 3.16 µM) of 1.65 µM and an IC50 (second compound 10 µM) of 1.44 µM. The viability, T/C [1] was 78.4%, the viability, T/C [13] was 74.8% and the viability, T/C [2] was 71.3%. It also gave a viability, T/C [14] of 54.6%, a viability, T/C [15] of 56.4% and a viability, T/C [16] of 46.7%. For the same molecule, the viability, T/C [3] was 92.2%, the viability, T/C [17] was 75.1% and the viability, T/C [4] was 59%. The viability, T/C [18] was 54.1%, the viability, T/C [19] was 60.5% and the viability, T/C [20] was 52.1%. For the same molecule, the viability, T/C [5] was 86%, the viability, T/C [21] was 70.8% and the viability, T/C [6] was 64.4%. For the same molecule, the viability, T/C [22] was 55.1%, the viability, T/C [23] was 66.6% and the viability, T/C [24] was 46.5%. For the same molecule, the viability, T/C [7] was 87.3%, the viability, T/C [25] was 64.6% and the viability, T/C [8] was 59.2%. The viability, T/C [26] was 57.9%, the viability, T/C [27] was 63.1% and the viability, T/C [28] was 48.8%. The viability, T/C [9] was 67.6%, the viability, T/C [29] was 55.4% and the viability, T/C [10] was 55.5%. The viability, T/C [30] was 53.3%, the viability, T/C [31] was 51.4% and the viability, T/C [32] was 39.8%. The viability, T/C [11] was 63.2%, the viability, T/C [33] was 59.4% and the viability, T/C [12] was 57.8%. For the same molecule, the viability, T/C [34] was 51%, the viability, T/C [35] was 43% and the viability, T/C [36] was 47.4%.

O=c1[nH]cc(F)c(=O)[nH]1 + Cc1[nH]c2ccc(F)cc2c1-c1nc2c3cccnc3c3ncccc3c2[nH]1 gave an IC50 (second compound 0.0316 µM) of over 10 µM, an IC50 (second compound 0.1 µM) of over 10 µM and an IC50 (second compound 0.316 µM) of over 10 µM. For the same molecule, the IC50 (second compound 1 µM) was over 10 µM, the IC50 (second compound 3.16 µM) was over 10 µM and the IC50 (second compound 10 µM) was over 10 µM. For the same molecule, the viability, T/C [1] was 102%, the viability, T/C [13] was 91.1% and the viability, T/C [2] was 99.1%. It also gave a viability, T/C [14] of 92.3%, a viability, T/C [15] of 89% and a viability, T/C [16] of 108%. The viability, T/C [3] was 98.4%, the viability, T/C [17] was 77.3% and the viability, T/C [4] was 92.2%. For the same molecule, the viability, T/C [18] was 82.2%, the viability, T/C [19] was 94.8% and the viability, T/C [20] was 98.6%. It also gave a viability, T/C [5] of 104%, a viability, T/C [21] of 74.1% and a viability, T/C [6] of 89.1%. For the same molecule, the viability, T/C [22] was 62.4%, the viability, T/C [23] was 98.8% and the viability, T/C [24] was 87%. It also gave a viability, T/C [7] of 84.5%, a viability, T/C [25] of 91.8% and a viability, T/C [8] of 76.2%. The viability, T/C [26] was 82.3%, the viability, T/C [27] was 88.2% and the viability, T/C [28] was 89.2%. For the same molecule, the viability, T/C [9] was 82.1%, the viability, T/C [29] was 81.7% and the viability, T/C [10] was 83.7%. It also gave a viability, T/C [30] of 69.8%, a viability, T/C [31] of 74.1% and a viability, T/C [32] of 66.3%. It also gave a viability, T/C [11] of 59.8%, a viability, T/C [33] of 73% and a viability, T/C [12] of 75.8%. The viability, T/C [34] was 75.9%, the viability, T/C [35] was 74.1% and the viability, T/C [36] was 78.3%.

— PubChem BioAssay AID2060492 (Molecular Pharmacology Branch, DTP, NCI, 2025)
